Three compounds from patent publication US20200246380A1, “Pharmaceutical Composition for Preventing or Treating Autoimmune Disease, and Method for Producing Same” (priority 2017, published 2020) can be followed below.

Format in all cases: cell-based, C57BL/6 mice
For assay [1], the system named is plasmacytoid dendritic cells. Briefly: Cytokine secretion from pDC according to treatment time of toll-like receptor agonist, ELISA (Example 4). Particulars: agonist applied at start of differentiation (0 day treatment) or 3 days thereafter; ODN1826 24 hours; vs no-treatment. The text has this: Differentiation into the plasmacytoid dendritic cells was induced by the same method as in Example 1 in order to check the immune tolerance inducing effect of the toll-like receptor agonist according to the treatment time point. Further, the toll-like receptor agonists were applied at the start time of the differentiation (0-day treatment) and were applied on 3 days after the start of differentiation (3 day treatment). After the total 8 days culturing, the plasmacytoid dendritic cells were isolated therefrom at a purity equal to or greater than 85% using a plasmacytoid dendritic cell separation kit (Miltenyi Biotec, Auburn, Calif.) and a magnetic cell sorting system (Vario MACS: Miltenyi Biotec, Auburn, Calif.). The separated cells (5×10^5 cells/ml) were inoculated into a 48 well plate. ODN1826 (1 μg/ml) was applied thereto and the cells were cultured for 24 hours. Then, supernatant was separated. The secretion pattern of the cytokine was then checked by ELISA (enzyme linked immunosorbent assay). In this connection, in order to check the effect from the treatment using the toll-like receptor agonist, the case in which the toll-like receptor agonist was not applied thereto during the differentiation of the immature dendritic cells is shown as Comparative Example (no-treatment, non).
In general terms: An ELISA detects its analyte on a solid surface through an enzyme-linked reagent.

In assay [2] the test system is plasmacytoid dendritic cells. Briefly: IL-10 secretion from pDC induced with various toll-like receptor agonists, ELISA (Example 3). As to conditions: pDC stimulated with ODN1826 (1 μg/ml), 24 hours; vs non-treatment. The protocol:
Ligands listed in Table 2 were used as the toll-like receptor agonist. […] The separated cells (5×10^5 cells/ml) were inoculated into a 48 well plate. ODN1826 (1 μg/ml) was applied thereto and the cells were cultured for 24 hours. Then, supernatant was separated. The secretion pattern of the immunosuppressive cytokine IL-10 was then checked by ELISA (enzyme linked immunosorbent assay). In this connection, in order to check the effect from the treatment using the toll-like receptor agonist, the case in which the toll-like receptor agonist was not applied thereto during the differentiation of the immature dendritic cells is shown as Comparative Example (non).

The subject of the next assay is immature dendritic cells. Briefly: Differentiation of immature dendritic cells into plasmacytoid dendritic cells with toll-like receptor agonist (Example 1). As to conditions: Pam3 100 to 500 ng/ml on third day of Flt3L differentiation; treatment vs non-treatment. The protocol: Specifically, thigh bone marrow samples were collected from C57BL/6 mice using bone marrow collecting syringes. The collected bone marrow was washed with phosphate buffered saline (PBS), and red blood cells were removed therefrom using ammonium chloride. Separated cells (3×10^6 cells/well) were inoculated in a 6-well plate. Then, 1 ml of RPMI 1640 containing 10% FBS (fetal bovine serum), 2 mM L-glutamine, 100 U/ml penicillin/streptomycin, 50 μM mercaptoethanol, 0.1 mM non-essential amino acid, 1 mM sodium pyruvate and 250 ng/ml FLT3L was added thereto to initiate culture and differentiation of the cells. On the third day after the start of differentiation, Pam3 was applied thereto at a concentration of 100 to 500 ng/ml. On 5 days from the start of differentiation, 1 ml of the RPMI 1640 was further supplemented thereto. The cells were cultured for 8 days. […] Further, in the case (TLRs-pDC) when the immature dendritic cells were treated with the toll-like receptor agonist, the ratio of the number of plasmacytoid dendritic cells obtained after the eighth day to the number of the initial immature dendritic cells was measured. […]

Consider Pam3 [TLR2 agonist], for which, in assay [1], the “expression level of IFN-α” value is “inhibited”, the “expression level of IFN-β” value is reported as “inhibited”, the “expression level of IL-10” value is “significantly increased” and the “expression level of IL-12p70” value is recorded as “inhibited”. The “expression level of TNF-α” value in assay [1] is reported as “inhibited”. Further, the “expression level of IL-10 from pDC differentiated via treatment with the agonist” value in assay [2] was “significantly increased”. For the same compound, the “differentiation efficiency into plasmacytoid dendritic cells” value in the assay on immature dendritic cells was “no difference”.
For the compound `CC(C)Cn1cnc2c(N)nc3ccccc3c21` [TLR7 agonist, Imiquimod], in assay [2], the “expression level of IL-10 from pDC differentiated via treatment with the agonist” value is “significantly increased”.
Turning to LPS [TLR4 agonist], in assay [2], the “expression level of IL-10 from pDC differentiated via treatment with the agonist” value is given as “significantly increased”.
